Experimental data reported in patent publication US20250275993A1, “GLYCOSYLATION INHIBITORS AS THERAPEUTICS FOR STROKE” (The Regents of the University of California, priority 2022, published 2025).

Key:
[1] = test system: α-glucosidase; assay: α-glucosidase activity assay; format: biochemical, Saccharomyces cerevisiae; settings: up to 2 mM
Experimental: a-mannosidase activity was measured using substrate p-nitrophenyl α-mannopyranoside (1 mM). Enzyme from Jack Bean (M7257) (final concentration of 0.077 U) was incubated at 37° C. in a final volume of 50 μl of 50 mM potassium phosphate buffer, pH 7.5. α-glucosidase was assayed with substrate p-nitrophenyl a-glucoside (7 mM). Enzyme from Saccharomyces cerevisiae-type 1 (Sigma, G5003) (final concentration of 0.1 U) was incubated at 37° C. in a final volume of 50 μl of PBS, pH 7.5. β-Glucosidase was assayed with substrate 4-nitrophenyl β-D-glucopyranoside (Roche). Enzyme from almond (Sigma, G0395) (final concentration of 0.002 U) was incubated at 37° C. in a final volume of 50 μl of PBS, pH 7.5 […]. The incubation was stopped by addition of an equal volume of acid-based stop solution (R&D systems, 895032). Enzymatic activity was measured at 405 nm. α-glucosidase from Saccharomyces cerevisiae type I (G5003) with p-nitrophenyl α-D-glucopyranoside (Sigma, N1377) as the substrate.

[2] = test system: VEGFR2 on cell surface; assay: Biotinylation of surface proteins in BCECs; format: cell-based, bovine; settings: ManN-treated BCECs
Experimental: BCECs were plated in 10 cm cell culture dishes 3 days prior to the cell surface protein isolation. Cells were washed three times with Dulbecco's PBS with CaCl2 and MgCl2, followed by a 30 min incubation with EZ-Link Sulfo-NHS-SS-Biotin (Pierce, Rockford, IL, USA; 0.5 mg/ml in Dulbecco) on ice. Cells were washed twice with Dulbecco and the non-reacted biotin was blocked with 20 mM glycine for 15 mins. To prevent the reduction of the disulfide bridge in the biotin molecule during the cell lysis process, a 100 μM oxidized glutathione (Sigma-Aldrich, St. Louis, MO) was added in the last wash solution. For cell lysis 500 μL of lysis buffer (2% NP-40, 1% Triton X-100, 10% glycerol, 100 μM oxidized glutathione, EDTA free protease inhibitor tablet (Roche, Mannheim, Germany) in PBS was added to the cells. Lysed cell extracts were scraped off the plates and transferred to an Eppendorf tube followed by incubation on ice on a shaker for 30 mins. The cell extracts were incubated with 30 U of DNase (22° C. 50 mins, Roche, Mannheim, Germany) and centrifuged for 20 mins (20,800×g, at 4° C.) to pellet the insoluble material. The protein concentration of the supernatants was determined. Equal amounts of protein (−2 mg) from each extract were used for cell surface protein isolation. […]

[3] = test system: dermal microvascular endothelial cells (hDMVECs); assay: hDMVEC proliferation assay; format: cell-based, human
Experimental: Proliferation assays with BCECs and BRECs were performed. Log-phase growing BCECs or BRECs (passage <10) were trypsinized, re-suspended and seeded in 96-well plates (no coating) in low-glucose DMEM supplemented with 10% bovine calf serum, 2 mM glutamine, and antibiotics (growth medium), at a density of 1200-1500 cells per well in 200 μl volume. All reagents were added at the indicated final concentrations. After 3-6 days, cells were incubated with AlamarBlue for 4 hrs. Fluorescence was measured at 530 nm excitation wavelength and 590 nm emission wavelength. The experiments were repeated at least three times. To create a hypoxic condition, cells were placed in a hypoxia incubator with a mixture of gas consisting of 1% O2, 5% CO2 and 94% N2. On each 96-well plate, untreated and VEGF-treated (10/ng/ml) wells were included to monitor plate-to-plate variations. 20% methanol or 0.05% DMSO served as negative controls. […] Human RMVECs and human adult DMVECs were split into Gelatin-coated 96 wells (2000 cells per well) in low glucose DMEM containing 10% FBS. 1200 cells/well was set up for proliferation assay in low glucose media containing 0.5% FBS. Data was collected at day 4 or 5. HUVEC (p7-10) were grown on gelatin-coated plate until it reached 70-80% confluency.
(§1) Proliferation assays with fibroblasts were done in low-glucose DMEM containing 1% FBS, with or without 10 ng/ml bFGF, or 100 ng/ml human EGF and the assay was ended at day 3. ARPE-19 cells were gently lifted with 0.025% trypsin and plated in RtEGM media (Clonetics) containing 2% FBS, L-glutamine, human bFGF and GA-1000. Once cells were attached to plates, serum-free RtEGM media was used to maintain the cultures. For proliferation assays, 1500 human RPE cells were plated into 96-well plates in low-glucose DMEM containing 1% FBS. A673, U87MG, Calu6 and AML12 cells were grown until confluent and were then harvested and re-suspended in appropriate assay media. […] Four days later, tumor cell growth was measured by the MTS assay (Promega, Madison, WI), a colorimetric assay that measures metabolic activity of viable cells. […]

[4] = test system: bovine pituitary cells; assay: Bovine pituitary cell proliferation assay; format: cell-based; settings: alone or in combination with growth factors
Experimental: as §1, with “media. For proliferation assays, cells were plated at the density of 1000-2000 cells/well in low-glucose DMEM containing 5% FBS or otherwise stated. Bovine pituitary cells (pituitary folliculostellate cells) were isolated as previously described. For proliferation assays with human epidermal keratinocytes, human DMVECs and human dermal fibroblast cells, 1000 cells/well were plated in low-glucose DMEM containing 1% FBS with or without various growth factors. The assay was ended at day 3 for bovine pituitary cells and at day 4 for all the other cell types.” for “media.”

N[C@H](C=O)[C@@H](O)[C@H](O)[C@H](O)CO [ManN, 2-Amino-2-deoxy-D-mannose]
effect on α-glucosidase [1]: No effect | amount of VEGFR2 on cell surface [2]: no changes | toxicity on hDMVECs ([3]; 5 mM ManN): minimal toxicity | hDMVECs growth, ManN by itself ([3]; ManN alone): stimulated | additivity with VEGF on hDMVEC proliferation ([3]; with VEGF): dose-dependent additivity with VEGF | proliferation of bovine pituitary cells [4]: no increases in proliferation
